# Where a name gives a salt, the structure may show the parent alone. Read-outs that look alike come from different tables or passages of the source.
# Experiments:
# [1] = target: T1, sigma2 receptor (Mus musculus, UniProt Q8VD00); assay: Sigma2 receptor competition binding against [3H]DTG /; conditions: for Sigma2 nH (pseudo-Hill slope): 3.0 nM [3H]DTG / 500 nM (+)-pentazocine, 60 min, 25 °C; for Selectivity Ki Ratio σ2/σ1: sigma2 Ki / sigma1 Ki
# T1 sequence (Q8VD00 1-176): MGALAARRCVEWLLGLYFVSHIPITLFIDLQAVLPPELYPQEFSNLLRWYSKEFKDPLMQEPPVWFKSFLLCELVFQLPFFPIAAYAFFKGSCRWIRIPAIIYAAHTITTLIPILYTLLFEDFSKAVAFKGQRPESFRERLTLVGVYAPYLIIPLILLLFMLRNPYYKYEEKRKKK
# [2] = target: T2, sigma1 receptor (Mus musculus, UniProt O55242); conditions: for Sigma1 nH (pseudo-Hill slope): 1.0 nM [3H](+)-pentazocine, 6 h, 37 °C
# T2 sequence (O55242 whole entry): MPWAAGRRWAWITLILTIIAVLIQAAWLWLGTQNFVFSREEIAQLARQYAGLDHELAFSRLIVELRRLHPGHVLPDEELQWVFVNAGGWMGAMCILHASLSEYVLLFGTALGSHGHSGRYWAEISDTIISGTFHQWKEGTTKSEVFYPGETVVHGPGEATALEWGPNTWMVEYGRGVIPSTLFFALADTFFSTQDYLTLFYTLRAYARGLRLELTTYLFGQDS
# [3] = target: T2, sigma1 receptor; assay: biochemical
# [4] = target: T2, sigma1 receptor; assay type: in vivo; conditions: for ED50: mouse, ip
# [5] = test system: sigma2 receptor; assay: [3H]DTG association kinetics and homologous; assay type: binding, mouse; conditions: 25 °C; 3.0 nM; 500 nM (+)-pentazocine
Molecule,Sigma2 nH (pseudo-Hill slope) ([1]; mouse lung membranes),Selectivity Ki Ratio σ2/σ1 ([1]; mouse lung membranes),Sigma1 nH (pseudo-Hill slope) ([2]; mouse lung membranes),Ki [3] [nM],other results
"C=CCN1CCC2(C)c3cc(O)ccc3CC1C2C (single isomer, unassigned; (+)) [(+)-NANM, (+)-N-allylnormetazocine]",1.63 ± 0.35,1162,1.04 ± 0.10,–,–
"C=CCN1CCC2(C)c3cc(O)ccc3CC1C2C (single isomer, unassigned; (-)) [(−)-NANM, (−)-N-allylnormetazocine]",0.85 ± 0.09,2.0,1.48 ± 0.28,–,–
"Cc1ccc2c(c1)C1CN(C)CCC1N2C(=O)CSc1nnnn1-c1ccc(Cl)cc1 (stereo not drawn) [AG-205, Z-2-[[1-(4-chlorophenyl)-1H-tetrazol-5-yl]thio]-1-(1,2,3,4,4a,9b-hexahydro-2,8-dimethyl-5H-pyrido[4,3-b]indol-5-yl)ethanone]",1.06 ± 0.20,0.07,1.11 ± 0.12,–,"higher apparent affinity for sigma2 sites over sigma1 sites ([1]; mouse lung membranes, from Ki values): 14 fold; residual specific [3H](+)-pentazocine binding at highest concentration ([2]; 0.02 M, the highest concentration used): approximately 10%"
"Cc1ccccc1NC(=N)Nc1ccccc1C [DTG, 1,3-di(2-tolyl)guanidine]",0.90 ± 0.16,–,1.21 ± 0.09,75.2 ± 8.01,–
"COc1ccc2c(c1)[C@]13CCCC[C@@H]1[C@H](C2)N(C)CC3 [Dextromethorphan, dextromethorphan hydrobromide]",1.22 ± 0.12,58,0.86 ± 0.12,71.7 ± 6.56,"IC50 [1]: 4510 ± 714 nM; Ki [1]: 4200 ± 664 nM; sigma1 receptor occupancy across tissues at higher doses ([4]; 31.6 – 100 µmol / kg (12 – 37 mg / kg)): fully occupied; ED50 ([4]; read-out: ED50, inhibition of specific radioligand binding in heart): 1.2 µmol/kg; ED50 ([4]; read-out: ED50, inhibition of specific radioligand binding in lung): 1.2 µmol/kg; ED50 ([4]; read-out: ED50, inhibition of specific radioligand binding in spleen): 3.5 µmol/kg; ED50 ([4]; read-out: ED50 values, range across lung, heart, spleen and brain): 1.1 to 4.4 µmol/kg; ED50 ([4]; read-out: ED50 values, range across tissues): 0.4 to 1.6 mg/kg; ED50 ([4]; read-out: lung ED50): 0.4 mg/kg; Hill slope in the presence of phenytoin ([2]; phenytoin 1.0 mM in NaOH vehicle, mouse lung membranes): 1.2 ± 0.2; shift to higher apparent sigma1 affinity caused by phenytoin ([2]; phenytoin 1.0 mM, mouse lung membranes): 5 fold; Hill slope with vehicle only ([2]; vehicle only (50 µL, 0.15 M NaOH), mouse lung membranes): 1.3 ± 0.2"
"CC(C(O)c1ccc(O)cc1)N1CCC(Cc2ccccc2)CC1 (stereo not drawn) [Ifenprodil, ifenprodil (+)-tartrate]",0.88 ± 0.10,0.1,1.06 ± 0.11,16.4 ± 1.89,IC50 [1]: 2.4 ± 0.27 nM; Ki [1]: 2.18 ± 0.24 nM
"Cc1ccccc1NC(=N)Nc1ccccc1C [[^3H]DTG, [^3H]1,3-di(2-tolyl)guanidine]",–,–,–,–,time to steady state of specific binding [5]: ≤ 2 min
"COc1ccc(CCN2CCN(C/C=C/I)CC2)cc1OC [[^125I]E-IA-DM-PE-PIPZE, E-N-1-(3´-iodoallyl)-N´-4-(3´´,4´´-dimethoxyphenethyl)-piperazine]",–,–,–,–,"specific binding in vivo in brain ([4]; mouse brain, non-specific defined by BD1063): 85%; specific binding in vivo in heart ([4]; mouse heart, non-specific defined by BD1063): 50%; specific binding in vivo in lung ([4]; mouse lung, non-specific defined by BD1063 5.0 µmol / kg i.v.): 68%; specific binding in vivo in spleen ([4]; mouse spleen, non-specific defined by BD1063): 66%"
(−)-cocaine hydrochloride,0.93 ± 0.09,–,–,–,–

# From PMC4543428 (European journal of pharmacology, 2015)
